Each compound was assayed against T1, purified recombinant human Aggrecanase-2 (Agg2-Phe628) (Homo sapiens, UniProt Q9UNA0) (assay: Aggrecanase 2 continuous in vitro fluorescence assay). Conditions: Agg2-Phe628 0.5 μg/ml, substrate 25 μM, 30° C.; read-out: IC50.
T1 construct: (Agg2-Phe628) (MW=41,737), which is a truncated form of full-length human aggrecanase-2; made in house; host or cells: CHO cells
T1 sequence (Q9UNA0 262-628 limits assumed): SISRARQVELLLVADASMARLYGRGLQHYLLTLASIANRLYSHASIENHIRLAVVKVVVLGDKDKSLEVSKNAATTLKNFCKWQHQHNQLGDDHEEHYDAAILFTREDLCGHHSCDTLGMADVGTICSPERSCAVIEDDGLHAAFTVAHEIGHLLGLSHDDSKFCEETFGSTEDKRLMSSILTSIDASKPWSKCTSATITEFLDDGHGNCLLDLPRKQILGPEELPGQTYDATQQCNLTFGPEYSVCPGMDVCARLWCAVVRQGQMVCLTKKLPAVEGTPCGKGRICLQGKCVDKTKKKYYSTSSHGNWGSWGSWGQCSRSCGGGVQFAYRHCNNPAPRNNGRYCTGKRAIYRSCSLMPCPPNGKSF
Type: biochemical
Protocol: A continuous vitro fluorescence assay was employed, wherein the enzyme used in the assay was a purified recombinant human Aggrecanase-2 (Agg2-Phe628) (MW=41,737), which is a truncated form of full-length human aggrecanase-2 that was expressed in CHO cells and purified prior to use. The final concentration of Agg2-Phe628 was 0.5 μg/ml. The buffer used in this assay was 50 mM HEPES, pH 7.5, 100 mM NaCl, 5 mM CaCl2, 0.1% CHAPS, 5% glycerol. The substrate used in the assay was a synthetic peptide having the sequence ABz-[sequence]-Dap(Dnp)-KK—NH2 (>95% pure by HPLC, AnaSpec, Inc.), wherein Abz refers to ortho-aminobenzyl, a fluorescent group which is quenched by energy transfer to a 2,4-dinitrophenyl group. The final concentration of substrate in the assay was 25 μM and was spectrophotometrically determined using the extinction coefficient at 354 nm of 18,172 M^−1cm^−1. The Vmax and Km for this enzyme/substrate reaction were determined to be insensitive to DMSO up to at least 10% (v/v).
The total reaction volume was 100 μl. The buffer and enzyme were added first followed by addition of 10× inhibitor from the dilution plate. Separate enzyme and buffer samples were included in order to obtain the maximal rate of substrate cleavage. The reaction was allowed to stand at 30° C. for 15 minutes, then substrate was added, the resultant solution was mixed. The resultant reaction was allowed to progress, with monitoring, for 40 minutes at 30° C. in kinetic mode using λex: 340 nm and λem: 420 (GeminiXS Molecular Devices).
The fluorescence intensity is linear during the time of data collection. The slope of the line (Vmax/sec) represents the initial reaction rate, ν. The maximal rate of cleavage of substrate was determined in the absence of inhibitor. The percent inhibition of activity in the presence of inhibitor was calculated using the following equation:
% inhibition=(1−ν(RFU/sec))/Maximal Rate(RFU/sec))*100
The IC50 was obtained by fitting the initial rate, ν or % inhibition at each concentration of inhibitor to the following equation:
This model describes a sigmoidal curve with an adjustable baseline, wherein:
y is the % inhibition or initial rate of reaction;
C is the concentration of inhibitor under test;
a is the limiting response as C approaches zero. As C increases without bound y tends toward its lower limit, d;
y is halfway between the lower and upper asymptotes when C=IC50; and
n is the Hill coefficient. The sign of n is positive when the response increases with increasing dose and is negative when the response decreases with increasing dose (inhibition).

| Compound | IC50 [µM] |
| --- | --- |
| CCc1ccc2c(c1)C1(NN=C(c3ccc(F)cc3)S1)C(=O)N2 (stereo not shown) [Compound 43, 5-ethyl-5′-(4-fluorophenyl)-3′H-spiro[indole-3,2′-[1,3,4]thiadiazol]-2(1H)-one] | 2.96 |
| CCc1ccc2c(c1)C1(NN=C(c3ccc(C(C)(C)C)cc3)S1)C(=O)N2 (stereo not shown) [Compound 44, 5′-(4-tert-butylphenyl)-5-ethyl-3′H-spiro[indole-3,2′-[1,3,4]thiadiazol]-2(1H)-one] | 1.66 |
| CCCC(=O)N1C(=O)C2(NN=C(c3ccc(C)cc3)S2)c2cc(CC)ccc21 (stereo not shown) [Compound 45, 1-butyryl-5-ethyl-5′-(4-methylphenyl)-3′H-spiro[indole-3,2′-[1,3,4]thiadiazol]-2(1H)-one] | 1.45 |
| CCCC(=O)N1C(=O)C2(NN=C(c3ccc(OC)cc3)S2)c2cc(CC)ccc21 (stereo not shown) [Compound 46, 1-butyryl-5-ethyl-5′-(4-methoxyphenyl)-3′H-spiro[indole-3,2′-[1,3,4]thiadiazol]-2(1H)-one] | 1.52 |
| CN1C(=O)C2(NN=C(c3ccccc3)S2)c2ccccc21 (stereo not shown) [Compound 52, 1-methyl-5′-phenyl-3′H-spiro[indoline-3,2′-[1,3,4]thiadiazol]-2-one] | 24.1 |
| O=C1Nc2ccccc2C12NN=C(c1ccccc1)S2 (stereo not shown) [Compound 53, 5′-phenyl-3′H-spiro[indoline-3,2′-[1,3,4]thiadiazol]-2-one] | 30 |
| O=C1Nc2ccc(Br)cc2C12NN=C(c1ccccc1)S2 (stereo not shown) [Compound 54, 5-bromo-5′-phenyl-3′H-spiro[indoline-3,2′-[1,3,4]thiadiazol]-2-one] | 13.6 |
| Cc1ccc2c(c1)C1(NN=C(c3ccccc3)S1)C(=O)N2 (stereo not shown) [Compound 55, 5-methyl-5′-phenyl-3′H-spiro[indoline-3,2′-[1,3,4]thiadiazol]-2-one] | 11.1 |
| CC(=O)N1C(=O)C2(NN=C(c3ccccc3)S2)c2ccccc21 (stereo not shown) [Compound 56, 1-acetyl-5′-phenyl-3′H-spiro[indoline-3,2′-[1,3,4]thiadiazol]-2-one] | 12.5 |
| ethyl [5′-(4-methoxyphenyl)-2-oxo-3′H-spiro[indole-3,2′-[1,3,4]thiadiazol]-1(2H)-yl]acetate [Compound 9] | 3.68 |

Same assay, conditions: inhibitor concentration not given

| Compound | % Inhibition [%] |
| --- | --- |
| CCc1ccc2c(c1)C1(NN=C(c3ccccc3)S1)C(=O)N2 (stereo not shown) [Compound 47, 5-ethyl-5′-phenyl-3′H-spiro[indole-3,2′-[1,3,4]thiadiazol]-2(1H)-one] | 9.6 |
| CCc1ccc2c(c1)C1(NN=C(c3ccc(C)cc3)S1)C(=O)N2 (stereo not shown) [Compound 48, 5-ethyl-5′-(4-methylphenyl)-3′H-spiro[indole-3,2′-[1,3,4]thiadiazol]-2(1H)-one] | 1.9 |
| Cc1ccc(C2=NNC3(S2)C(=O)Nc2ccc(C)cc23)cc1 (stereo not shown) [Compound 49, 5-methyl-5′-(4-methylphenyl)-3′H-spiro[indole-3,2′-[1,3,4]thiadiazol]-2(1H)-one] | 3 |
| Cc1ccc(C2=NNC3(S2)C(=O)Nc2ccccc23)cc1 (stereo not shown) [Compound 50, 5′-(4-methylphenyl)-3′H-spiro[indole-3,2′-[1,3,4]thiadiazol]-2(1H)-one] | 3.7 |
| Cc1ccc(C2=NNC3(S2)C(=O)N(C)c2ccccc23)cc1 (stereo not shown) [Compound 51, 1-methyl-5′-(4-methylphenyl)-3′H-spiro[indole-3,2′-[1,3,4]thiadiazol]-2(1H)-one] | 4.6 |

Same assay, conditions: positive control at 10 nM

| Compound | inhibition at 0.01 µM [%] |
| --- | --- |
| CNC(=O)[C@H](Cc1ccccc1)NC(=O)[C@H](CC(C)C)[C@H](CSc1cccs1)C(=O)NO [N2-{(2R)-2-[(1S)-1-Hydroxycarbamoyl-2-(thiophen-2-ylsulfanyl)-ethyl]-4-methyl-pentanoyl}-N-methyl-L-phenylalaninamide, reference compound] | 40 |

Same assay, conditions: positive control at 20 nM

| Compound | inhibition at 0.02 µM [%] |
| --- | --- |
| CNC(=O)[C@H](Cc1ccccc1)NC(=O)[C@H](CC(C)C)[C@H](CSc1cccs1)C(=O)NO [N2-{(2R)-2-[(1S)-1-Hydroxycarbamoyl-2-(thiophen-2-ylsulfanyl)-ethyl]-4-methyl-pentanoyl}-N-methyl-L-phenylalaninamide, reference compound] | 60 |

Same assay, conditions: positive control at 200 nM

| Compound | inhibition at 0.2 µM [%] |
| --- | --- |
| CNC(=O)[C@H](Cc1ccccc1)NC(=O)[C@H](CC(C)C)[C@H](CSc1cccs1)C(=O)NO [N2-{(2R)-2-[(1S)-1-Hydroxycarbamoyl-2-(thiophen-2-ylsulfanyl)-ethyl]-4-methyl-pentanoyl}-N-methyl-L-phenylalaninamide, reference compound] | 100 |

Same assay, conditions: positive control; read-out: Agg2 IC50

| Compound | IC50 [µM] |
| --- | --- |
| CNC(=O)[C@H](Cc1ccccc1)NC(=O)[C@H](CC(C)C)[C@H](CSc1cccs1)C(=O)NO [N2-{(2R)-2-[(1S)-1-Hydroxycarbamoyl-2-(thiophen-2-ylsulfanyl)-ethyl]-4-methyl-pentanoyl}-N-methyl-L-phenylalaninamide, reference compound] | 0.036 |

— US20080125469A1, “Thiadiazole compounds and methods of use thereof” (Wyeth, priority 2006, published 2008)
